How the values were obtained:
[1] = tested on: PPARγ ligand production in 5B2 cells; experiment: Effect of COX and LOX inhibitors on PPARγ ligand production in differentiating 5B2 cells (β-gal activity); format: cell-based, murine; conditions: day 2
Text: To test whether PPARγ ligand production was dependent upon cyclooxygenase (COX) or lipooxygenase (LOX), which would be expected if the ligand were a prostaglandin, the effect of COX and LOX inhibitors on PPARγ ligand production during 3T3-L1 differentiation into adipocytes was examined by measuring the β-gal activity in the stable cell line, 5B2.
5B2 cells were stimulated to differentiation into adipocytes as described above. The media containing the mixture of insulin, DEX and MIX is called d0 media on FIG. 10. In the experimental samples, d0 media contained the indicated COX or LOX inhibitor. The fold induction of β-gal activity of day 2 cells was compared to cells of day 2 stimulated in the absence of hormones (g media).

PPARγ = biological target: T1, PPARγ (Homo sapiens, UniProt P37231); conditions: cited from earlier work
T1 sequence (P37231 1-505): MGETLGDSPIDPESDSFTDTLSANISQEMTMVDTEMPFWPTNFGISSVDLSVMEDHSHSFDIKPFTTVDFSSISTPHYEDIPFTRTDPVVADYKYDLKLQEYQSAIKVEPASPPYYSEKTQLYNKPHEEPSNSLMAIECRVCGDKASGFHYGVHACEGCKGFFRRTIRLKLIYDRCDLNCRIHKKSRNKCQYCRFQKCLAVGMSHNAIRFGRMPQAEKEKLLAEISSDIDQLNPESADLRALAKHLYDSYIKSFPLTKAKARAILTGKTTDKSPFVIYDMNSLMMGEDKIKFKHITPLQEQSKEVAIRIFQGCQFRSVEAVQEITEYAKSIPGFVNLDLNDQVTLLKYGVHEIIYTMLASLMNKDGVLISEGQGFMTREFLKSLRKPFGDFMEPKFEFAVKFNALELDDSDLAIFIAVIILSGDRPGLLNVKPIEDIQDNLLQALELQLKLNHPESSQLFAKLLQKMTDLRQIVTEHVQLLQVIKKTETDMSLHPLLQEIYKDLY

[2] = biological target: T2, PPARγ-LBD fused to GAL4-DBD (Mus musculus, UniProt P37238); experiment: PPARγ ligand monitoring system (Gal4-PPARγ-LBD / pUH-gal β-gal reporter) in transfected CV-1 cells; conditions: 3T3-L1 stimulated 2 days with combinations of Ins, Mix and Dex
T2 sequence (P37238 238-503 limits assumed): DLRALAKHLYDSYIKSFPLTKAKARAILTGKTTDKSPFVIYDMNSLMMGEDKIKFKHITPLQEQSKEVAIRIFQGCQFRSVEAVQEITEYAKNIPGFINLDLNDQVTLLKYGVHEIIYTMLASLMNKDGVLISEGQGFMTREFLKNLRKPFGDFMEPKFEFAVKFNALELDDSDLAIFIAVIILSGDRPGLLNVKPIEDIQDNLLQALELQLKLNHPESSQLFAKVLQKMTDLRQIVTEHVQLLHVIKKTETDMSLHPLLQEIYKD
Experimental: The effector and reporter constructs were transfected into either CV-1 cells (monkey kidney cells) or 3T3-L1 cells (murine fibroblast cells capable of being differentiated into adipocytes). Cells were grown according to standard protocols for these cells. For example, 3T3-L1 cells were grown and maintained as fibroblasts in DMEM/high glucose, containing 10% calf serum in a 10% CO2 humidified environment at 37° C. The cells were maintained at a subconfluent level so as to not prematurely arrest cell growth and induce differentiation. The cells were typically split 1:5 or 1:3 every 3 to 4 days. Cells were transfected using Lipofectamine™ 2000 Reagent (Life Technologies™, Carlsbad, Calif.) according to the manufacturers instructions. Cells were plated in 24 well dishes for the assay.
The washed cells were lysed with 200 μl lysis buffer (25 mM glycylglycine, 15 mM MgSO4, 4 mM EGTA, 1 mM DTT, 1% Triton) per well. […] The β-gal activity was measured for 10 sec. in a Luminometer (LB9507, EG&G, Bad Wildbad, Germany).
CV-1 cells were transfected as described above with pUH-G4-PPARγ and pUH-gal, with or without nuclear receptor interaction domain NBD1 of SRC-1 fused with VP16 or inactivated VP16. […] The treated, transfected cells were harvested and β-gal activity measured 48 hrs post-transfection.

[3] = biological target: T2, PPARγ-LBD fused to GAL4-DBD; experiment: β-gal activity in 3T3-L1 cell lines 5B2 and 5B3 stably transfected with the feedback monitoring system; format: cell-based, murine; parameters: expressed in transfected cells
PPARγ1 = experiment: Full-length PPARγ1 / p3DR1-luc luciferase reporter in CV-1 cells stimulated with conditioned media; format: cell-based; conditions: CV-1, pCMV-PPARγ and p3DR1-luc, with or without NBD1-VP16; various concentrations
Experimental: CV-1 cells were transfected with an expression vector encoding full-length PPARγ1 (pCMV-PPARγ) and a reporter plasmid p3DR1-1uc. p3DR1-luc contains a triple copy of PPARγ response element, Direct Repeat 1, linked to the luciferase gene. The cells were transfected with the reporter with or without NBD1-VP16 expression vector. The transfected cells were incubated with or without conditioned media in the absence or presence of various concentrations of PD068235. The cells were washed and lysed as described above for the β-gal assay, except that 50 μl of the lysate were mixed with 100 μl assay buffer and measured for 15 sec. in the Luminometer. Assay buffer consisted of 25 mM glycylglycine, 15 mM MgSO4, 4 mM EGTA, 1 mM DTT, 15 mM KH2PO4, 6 mM ATP and 100 μl of a 0.225 mg/ml luciferin stock solution.

3T3-L1 = conditions: cited from earlier work
[4] = cited from earlier work; for LDL levels: human, in vivo

CCCCCC(O)c1ccc(OCc2ccc3ccccc3n2)cc1 (single isomer, unassigned) [REV 5901-para-isomer]
effect on β-gal activity produced by stimulated 5B2 cells ([1]; 5 μM in d0 media): no significant effect

CCCCC/C=C/C=C1/C(=O)C=C[C@@H]1C/C=C\CCCC(=O)O [15-deoxyΔ^12,14PG J2]
Kd (PPARγ; read-out: affinity (dissociation constant) of PPARγ for the ligand): 2 to 50 µM

O=c1cc(-c2ccccc2)oc2cc(O)c(O)c(O)c12 [Baicalein]
effect on β-gal activity produced by stimulated 5B2 cells ([1]; 5 μM in d0 media): no significant effect

COc1ccc2c(c1)c(CC(=O)O)c(C)n2C(=O)c1ccc(Cl)cc1 [Indomethacin]
effect on β-gal activity produced by stimulated 5B2 cells ([1]; 10 μM in d0 media): no significant effect

CC(C)c1ccc2c(c1)c(SC(C)(C)C)c(CC(C)(C)C(=O)O)n2Cc1ccc(Cl)cc1 [MK866]
effect on β-gal activity produced by stimulated 5B2 cells ([1]; 5 μM in d0 media): no significant effect

CC(C)Cn1c(=O)n(C)c(=O)c2[nH]cnc21 [Mix, methyl iso-butyl xanthine]
ligand production of 3T3-L1 cells (β-gal activity of CV-1 cells incubated with conditioned media) [2]: dependent on stimulation by Mix | induction of β-gal activity by components of the adipogenic mixture ([3]; 5B2 and 5B3, combinations of Ins, 0.5 mM Mix, Dex, day 2): dependent on the stimulation by Mix | ligand production (β-gal activity) on stimulation with cAMP elevating compounds ([3]; 5B2 cells): induced the ligand production of differentiating pre-adipocytes by increasing the intracellular cAMP

CC(Cc1ccc(O)c(O)c1)C(C)Cc1ccc(O)c(O)c1 (stereo not drawn) [NDGA]
effect on β-gal activity produced by stimulated 5B2 cells ([1]; 10 μM in d0 media): no significant effect

C=CCn1cc([N+](=O)[O-])sc1=NC(=O)C(C)(C)C [PD068235]
inhibition of CM-stimulated PPARγ transcriptional activity (luciferase) (PPARγ1): dose-dependent inhibition of CM-stimulated PPARγ transcriptional activity | 3T3-L1 adipocyte differentiation (3T3-L1): prevent 3T3-L1 adipocyte differentiation

Cc1c(C)c2c(c(C)c1O)CCC(C)(COc1ccc(CC3SC(=O)NC3=O)cc1)O2 (stereo not drawn) [Troglitazone]
LDL levels [4]: associated with a rise in LDL levels | liver toxicity ([4]; patients): liver toxicity in some patients

CCCCC/C=C\C/C=C\CCCCCCCC(=O)O [linoleic acid]
direct binding to PPARγ (PPARγ): bind directly to PPARγ

CN(CCOc1ccc(CC2SC(=O)NC2=O)cc1)c1ccccn1 (stereo not drawn) [rosiglitazone]
LDL levels [4]: associated with a rise in LDL levels
